Assay [1] has as its system M. tuberculosis H37Rv and mmpL3 mutants DR1-DR9. In kind it is cell-based.
The subject of assay [2] is M. bovis BCG and mmpL3 mutants M1, M8. In kind it is cell-based.

On to `CCc1ccc(-c2cc(CN3CCOCC3)c(C)n2-c2ccc(F)cc2)cc1` [Compound 8, 2-Methyl-3-[(morpholin-4-yl)-methyl]-5-[4-(ethyl)phenyl]-1-[4-(fluoro)phenyl]-1H-pyrrole], for which, in assay [1], the “MIC for M. tuberculosis isolates resistant to compound 8” value amounted to 0.66 µM. Further, the “MIC for M. bovis BCG mutants resistant to compound 8” value in assay [2] was 0.63 µM.

For `Cc1ccc(-c2cc(CN3CCOCC3)c(C)n2-c2ccc(F)cc2)cc1` [Compound 5, 2-Methyl-3-[(morpholin-4-yl)-methyl]-5-[4-(methyl)phenyl]-1-[4-(fluoro)phenyl]-1H-pyrrole], in assay [1], the “MIC for M. tuberculosis mutants with amino acid change V681I” value is 5.4 µM.
